Values quoted from earlier work as cited in US12692302B2, “Uses of IL-13 antagonists for treating atopic dermatitis” (Genentech, Inc., priority 2016, dated 2026).
Read-outs that look alike come from different tables or passages of the source.

System: moderate-to-severe asthmatic patients not controlled on inhaled corticosteroids
Details: all doses (37.5, 125, 250 mg Q4W), cited from earlier work

## lebrikizumab: monoclonal humanized anti-IL-13 IgG4 antibody; heavy chain SEQ ID NO: 11, light chain SEQ ID NO: 12; formulated at 125 mg/mL in prefilled syringe
biomarker-high (serum periostin-high) patients
  reduction in the rate of asthma exacerbations: 60%
biomarker-low (serum periostin-low) patients
  reduction in the rate of asthma exacerbations: 5%
